The source made the active and inactive calls. The calls are words filed in the database; no cut-off is given here.
Columns and labels:
Mus musculus [1] = assay: Anticonvulsant activity ip dosed albino CF1 mouse assessed as protection against maximal electroshock-induced seizures after 0.25 hrs; assay type: functional
Mus musculus [2] = assay: Anticonvulsant activity in albino CF1 mouse assessed as protection against maximal electroshock-induced seizures at 30 mg/kg, ip after 0.5 hrs; assay type: functional, organism-based; parameters: dose 30 mg/kg
Mus musculus [3] = assay: Anticonvulsant activity ip dosed albino CF1 mouse assessed as protection against subcutaneous metrazole-induced seizures after 0.25 hrs; assay type: functional; settings: albino CF1, 0.25 h
Mus musculus [4] = assay: Neurotoxicity in ip dosed albino CF1 mouse assessed as minimum dose required to cause toxicity after 0.5 hrs by rotarod test; assay type: organism-based; settings: in vivo
Mus musculus [5] = assay: Anticonvulsant activity in albino CF1 mouse assessed as protection against subcutaneous metrazole-induced seizures at 30 mg/kg, ip after 0.5 hrs; assay type: functional, organism-based; parameters: dose 30 mg/kg
Mus musculus [6] = assay: Anticonvulsant activity in albino CF1 mouse assessed as protection against subcutaneous metrazole-induced seizures at 300 mg/kg, ip after 4 hrs; assay type: functional, organism-based; parameters: dose 300 mg/kg
Mus musculus [7] = assay: Anticonvulsant activity in albino CF1 mouse assessed as protection against maximal electroshock-induced seizures at 100 mg/kg, ip after 4 hrs; assay type: functional, organism-based; parameters: dose 100 mg/kg
Mus musculus [8] = assay: Neurotoxicity in albino CF1 mouse assessed as minimal motor impairment at 30 to 300 mg/kg, ip after 0.5 hrs by rotarod test; settings: in vivo
Mus musculus [9] = assay: Anticonvulsant activity in albino CF1 mouse assessed as protection against maximal electroshock-induced seizures at 300 mg/kg, ip after 4 hrs; assay type: functional, organism-based; parameters: dose 300 mg/kg
Rattus norvegicus [10] = assay: Neurotoxicity in albino Sprague-Dawley rat assessed as minimal motor impairment at 30 mg/kg, po by rotarod test; assay type: toxicity, organism-based; parameters: dose 30 mg/kg, route oral; settings: in vivo
Mus musculus [11] = assay: Anticonvulsant activity against subcutaneous metrazole-induced seizures in ip dosed albino CF1 mouse assessed as minimum effective dose after 4 hrs; assay type: functional; settings: albino CF1, 4 h, read-out: MED
Mus musculus [12] = assay: Anticonvulsant activity in albino CF1 mouse assessed as protection against subcutaneous metrazole-induced seizures at 30 mg/kg, ip after 4 hrs; assay type: functional, organism-based; parameters: dose 30 mg/kg
Rattus norvegicus [13] = assay: Anticonvulsant activity in albino Sprague-Dawley rat assessed as protection against maximal electroshock-induced seizures at 30 mg/kg, po after 4 hrs; assay type: functional, organism-based; parameters: dose 30 mg/kg
Rattus norvegicus [14] = assay: Anticonvulsant activity in albino Sprague-Dawley rat assessed as protection against maximal electroshock-induced seizures at 30 mg/kg, po after 0.5 hrs; assay type: functional, organism-based; parameters: dose 30 mg/kg
Mus musculus [15] = assay: Neurotoxicity in albino CF1 mouse assessed as minimal motor impairment at 100 mg/kg, ip after 0.5 hrs by rotarod test; assay type: toxicity, organism-based; parameters: dose 100 mg/kg, route intraperitoneal; settings: in vivo
Mus musculus [16] = assay: Neurotoxicity in albino CF1 mouse assessed as minimal motor impairment at 30 to 300 mg/kg, po after 4 hrs by rotarod test; assay type: toxicity, organism-based; parameters: dose 30-300 mg/kg, route oral; settings: in vivo
Mus musculus [17] = assay: Neurotoxicity in ip dosed albino CF1 mouse assessed as minimal motor impairment after 0.25 hrs by rotarod test; assay type: toxicity, organism-based; settings: in vivo
Mus musculus [18] = assay: Anticonvulsant activity in albino CF1 mouse assessed as protection against maximal electroshock-induced seizures at 230 mg/kg, ip after 0.25 hrs; assay type: functional, organism-based; parameters: dose 230 mg/kg
Mus musculus [19] = assay: Neurotoxicity in albino CF1 mouse assessed as minimal motor impairment at 30 mg/kg, ip after 4 hrs by rotarod test; assay type: toxicity, organism-based; parameters: dose 30 mg/kg, route intraperitoneal; settings: in vivo
Mus musculus [20] = assay: Anticonvulsant activity in albino CF1 mouse assessed as protection against maximal electroshock-induced seizures at 100 mg/kg, ip after 0.5 hrs; assay type: functional, organism-based; parameters: dose 100 mg/kg
Mus musculus [21] = assay: Neurotoxicity in albino CF1 mouse assessed as minimal motor impairment at 500 mg/kg, ip after 0.25 hrs by rotarod test; assay type: toxicity, organism-based; parameters: dose 500 mg/kg, route intraperitoneal; settings: in vivo
Mus musculus [22] = assay: Neurotoxicity in albino CF1 mouse assessed as minimal motor impairment at 300 mg/kg, ip after 4 hrs by rotarod test; assay type: toxicity, organism-based; parameters: dose 300 mg/kg, route intraperitoneal; settings: in vivo
Mus musculus [23] = assay: Anticonvulsant activity in albino CF1 mouse assessed as protection against subcutaneous metrazole-induced seizures at 100 mg/kg, ip after 0.5 hrs; assay type: functional, organism-based; parameters: dose 100 mg/kg
Mus musculus [24] = species on record: Mus musculus; assay: Protective index, ratio of TD50 for albino CF1 mouse by rotarod test to ED50 for albino CF1 mouse by maximal electroshock seizures test; assay type: functional
Mus musculus [25] = assay: Anticonvulsant activity in albino CF1 mouse assessed as protection against subcutaneous metrazole-induced seizures at 125 mg/kg, ip after 0.25 hrs; assay type: functional, organism-based; parameters: dose 125 mg/kg
Rattus norvegicus [26] = assay: Anticonvulsant activity in albino Sprague-Dawley rat assessed as protection against maximal electroshock-induced seizures at 30 mg/kg, po after 0.25 hrs; assay type: functional, organism-based; parameters: dose 30 mg/kg
Mus musculus [27] = assay: Anticonvulsant activity in albino CF1 mouse assessed as protection against subcutaneous metrazole-induced seizures at 100 mg/kg, ip after 4 hrs; assay type: functional, organism-based; parameters: dose 100 mg/kg
Rattus norvegicus [28] = assay: Anticonvulsant activity in albino Sprague-Dawley rat assessed as protection against maximal electroshock-induced seizures at 30 mg/kg, po after 2 hrs; assay type: functional, organism-based; parameters: dose 30 mg/kg
[29] = target: Sodium channel protein type 2 subunit alpha (Homo sapiens, UniProt Q99250); assay: Inhibition of human NaV1.2 expressed in HEK cells at -60 mV holding potential by patch clamp recording technique; assay type: cell-based, HEK293
Mus musculus [30] = assay: Anticonvulsant activity against maximal electroshock-induced seizures in ip dosed albino CF1 mouse assessed as minimum effective dose after 0.5 hrs; assay type: functional; settings: read-out: MED
Rattus norvegicus [31] = assay: Anticonvulsant activity in albino Sprague-Dawley rat assessed as protection against maximal electroshock-induced seizures at 30 mg/kg, po after 1 hr; assay type: functional, organism-based; parameters: dose 30 mg/kg
Mus musculus [32] = assay: Neurotoxicity in albino CF1 mouse assessed as minimal motor impairment at 30 mg/kg, ip after 0.5 hrs by rotarod test; assay type: toxicity, organism-based; parameters: dose 30 mg/kg, route intraperitoneal; settings: in vivo
Mus musculus [33] = assay: Neurotoxicity in albino CF1 mouse assessed as minimal motor impairment at 100 mg/kg, ip after 4 hrs by rotarod test; assay type: toxicity, organism-based; parameters: dose 100 mg/kg, route intraperitoneal; settings: in vivo
Mus musculus [34] = assay: Neurotoxicity in albino CF1 mouse assessed as minimal motor impairment at 350 mg/kg, ip after 0.25 hrs by rotarod test; assay type: toxicity, organism-based; parameters: dose 350 mg/kg, route intraperitoneal; settings: in vivo
Mus musculus [35] = assay: Anticonvulsant activity in albino CF1 mouse assessed as protection against maximal electroshock-induced seizures at 30 mg/kg, ip after 4 hrs; assay type: functional, organism-based; parameters: dose 30 mg/kg
Mus musculus [36] = assay: Neurotoxicity in ip dosed albino CF1 mouse assessed as minimum dose required to cause toxicity after 4 hrs by rotarod test; assay type: organism-based; settings: in vivo
Mus musculus [37] = assay: Anticonvulsant activity in albino CF1 mouse assessed as protection against maximal electroshock-induced seizures at 300 mg/kg, ip after 0.5 hrs; assay type: functional, organism-based; parameters: dose 300 mg/kg
Mus musculus [38] = assay: Anticonvulsant activity in albino CF1 mouse assessed as protection against subcutaneous metrazole-induced seizures at 250 mg/kg, ip after 0.25 hrs; assay type: functional, organism-based; parameters: dose 250 mg/kg
Mus musculus [39] = assay: Anticonvulsant activity against maximal electroshock-induced seizures in ip dosed albino CF1 mouse assessed as minimum effective dose after 4 hrs; assay type: functional; settings: read-out: MED
Mus musculus [40] = assay: Anticonvulsant activity against subcutaneous metrazole-induced seizures in ip dosed albino CF1 mouse assessed as minimum effective dose after 0.5 hrs; assay type: functional; settings: albino CF1, 0.5 h, read-out: MED
Mus musculus [41] = assay: Anticonvulsant activity in albino CF1 mouse assessed as protection against subcutaneous metrazole-induced seizures at 300 mg/kg, ip after 0.5 hrs; assay type: functional, organism-based; parameters: dose 300 mg/kg
Mus musculus [42] = assay: Neurotoxicity in albino CF1 mouse assessed as minimal motor impairment at 200 mg/kg, ip after 0.25 hrs by rotarod test; assay type: toxicity, organism-based; parameters: dose 200 mg/kg, route intraperitoneal; settings: in vivo
Mus musculus [43] = assay: Neurotoxicity in albino CF1 mouse assessed as minimal motor impairment at 300 mg/kg, ip after 0.5 hrs by rotarod test; assay type: toxicity, organism-based; parameters: dose 300 mg/kg, route intraperitoneal; settings: in vivo
Mus musculus [44] = assay: Neurotoxicity in albino CF1 mouse assessed as minimal motor impairment at 80 mg/kg, ip after 0.25 hrs by rotarod test; assay type: toxicity, organism-based; parameters: dose 80 mg/kg, route intraperitoneal; settings: in vivo

Sodium channel protein type 2 subunit alpha, sequence (Q99250 whole entry): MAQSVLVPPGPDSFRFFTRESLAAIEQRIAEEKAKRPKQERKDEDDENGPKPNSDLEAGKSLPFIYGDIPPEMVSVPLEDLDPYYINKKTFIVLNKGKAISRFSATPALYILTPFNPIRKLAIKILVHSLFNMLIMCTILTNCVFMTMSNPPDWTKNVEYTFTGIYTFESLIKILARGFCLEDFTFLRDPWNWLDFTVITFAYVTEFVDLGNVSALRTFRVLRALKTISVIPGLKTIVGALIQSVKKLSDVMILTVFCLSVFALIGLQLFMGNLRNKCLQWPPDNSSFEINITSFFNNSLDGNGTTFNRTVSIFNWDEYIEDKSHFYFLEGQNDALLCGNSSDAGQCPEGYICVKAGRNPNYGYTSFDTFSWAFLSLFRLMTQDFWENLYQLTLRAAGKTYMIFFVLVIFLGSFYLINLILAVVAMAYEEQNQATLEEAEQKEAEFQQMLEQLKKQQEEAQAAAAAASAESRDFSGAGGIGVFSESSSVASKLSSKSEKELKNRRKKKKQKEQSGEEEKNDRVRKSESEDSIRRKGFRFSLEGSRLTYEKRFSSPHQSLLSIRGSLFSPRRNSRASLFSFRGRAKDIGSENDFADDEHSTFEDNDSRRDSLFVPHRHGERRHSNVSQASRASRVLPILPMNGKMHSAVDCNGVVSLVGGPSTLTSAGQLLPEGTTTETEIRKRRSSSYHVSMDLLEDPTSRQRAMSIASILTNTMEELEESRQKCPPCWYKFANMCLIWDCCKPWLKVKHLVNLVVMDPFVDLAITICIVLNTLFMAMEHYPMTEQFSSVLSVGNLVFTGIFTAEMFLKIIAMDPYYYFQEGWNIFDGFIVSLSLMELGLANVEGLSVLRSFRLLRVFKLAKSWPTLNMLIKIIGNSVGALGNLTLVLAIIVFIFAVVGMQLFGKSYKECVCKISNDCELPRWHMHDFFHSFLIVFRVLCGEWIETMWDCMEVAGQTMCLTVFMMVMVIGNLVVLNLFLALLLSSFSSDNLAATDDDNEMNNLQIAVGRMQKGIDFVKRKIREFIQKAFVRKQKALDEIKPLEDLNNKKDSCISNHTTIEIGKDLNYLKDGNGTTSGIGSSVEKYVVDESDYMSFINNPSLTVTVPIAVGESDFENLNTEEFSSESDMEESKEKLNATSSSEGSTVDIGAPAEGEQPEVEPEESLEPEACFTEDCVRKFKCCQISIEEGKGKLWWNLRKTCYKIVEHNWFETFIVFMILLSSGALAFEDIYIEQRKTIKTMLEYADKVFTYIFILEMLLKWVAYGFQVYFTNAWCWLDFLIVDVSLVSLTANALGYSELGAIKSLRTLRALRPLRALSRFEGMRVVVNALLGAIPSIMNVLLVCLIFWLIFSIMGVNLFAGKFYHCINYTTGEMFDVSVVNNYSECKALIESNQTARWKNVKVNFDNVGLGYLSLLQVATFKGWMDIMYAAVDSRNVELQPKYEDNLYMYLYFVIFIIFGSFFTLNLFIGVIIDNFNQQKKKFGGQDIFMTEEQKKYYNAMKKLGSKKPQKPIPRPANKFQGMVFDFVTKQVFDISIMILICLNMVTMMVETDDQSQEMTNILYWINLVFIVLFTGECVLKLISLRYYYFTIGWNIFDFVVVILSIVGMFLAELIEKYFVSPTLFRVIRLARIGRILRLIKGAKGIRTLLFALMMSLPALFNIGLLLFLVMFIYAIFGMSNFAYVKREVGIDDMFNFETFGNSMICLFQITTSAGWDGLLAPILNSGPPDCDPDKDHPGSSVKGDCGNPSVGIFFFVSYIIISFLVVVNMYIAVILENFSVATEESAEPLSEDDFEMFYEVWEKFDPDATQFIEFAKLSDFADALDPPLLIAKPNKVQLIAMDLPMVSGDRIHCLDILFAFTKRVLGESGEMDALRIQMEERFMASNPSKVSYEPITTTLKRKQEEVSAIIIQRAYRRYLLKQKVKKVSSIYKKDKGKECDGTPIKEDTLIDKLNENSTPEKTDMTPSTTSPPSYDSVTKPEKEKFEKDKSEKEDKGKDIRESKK

Structure (SMILES): Clc1cccc(-c2c[nH]c(-c3ccccc3)n2)c1
- ED50 (Mus musculus [1]): 137 mg/kg
- Activity (Mus musculus [2]): inactive
- ED50 (Mus musculus [3]): > 250 mg/kg
- MED (Mus musculus [4]): 100 mg/kg
- Activity (Mus musculus [5]): inactive
- Activity (Mus musculus [6]): inactive
- Activity (Mus musculus [7]): inactive
- Activity (Mus musculus [8]): Non-toxic
- Activity (Mus musculus [9]): Active
- Activity (Rattus norvegicus [10]): Non-toxic
- minimal effective dose (Mus musculus [11]): > 300 mg/kg
- Activity (Mus musculus [12]): inactive
- Activity (Rattus norvegicus [13]): inactive
- Activity (Rattus norvegicus [14]): inactive
- Activity (Mus musculus [15]): Non-toxic
- Activity (Mus musculus [16]): Non-toxic
- TD50 (Mus musculus [17]): > 500 mg/kg
- Activity (Mus musculus [18]): Active
- Activity (Mus musculus [19]): Non-toxic
- Activity (Mus musculus [20]): Active
- Activity (Mus musculus [21]): Non-toxic
- Activity (Mus musculus [22]): Non-toxic
- Activity (Mus musculus [23]): inactive
- PI (Mus musculus [24]): >3.6
- Activity (Mus musculus [25]): inactive
- Activity (Rattus norvegicus [26]): inactive
- Activity (Mus musculus [27]): inactive
- Activity (Rattus norvegicus [28]): inactive
- IC50 [29]: 17.9 µM
- minimal effective dose (Mus musculus [30]): > 30 mg/kg
- Activity (Rattus norvegicus [31]): inactive
- Activity (Mus musculus [32]): Non-toxic
- Activity (Mus musculus [33]): Non-toxic
- Activity (Mus musculus [34]): Non-toxic
- Activity (Mus musculus [35]): inactive
- MED (Mus musculus [36]): > 300 mg/kg
- Activity (Mus musculus [37]): Active
- Activity (Mus musculus [38]): inactive
- minimal effective dose (Mus musculus [39]): 100 mg/kg
- minimal effective dose (Mus musculus [40]): > 300 mg/kg
- Activity (Mus musculus [41]): inactive

Structure (SMILES): c1ccc(-c2c[nH]c(-c3ccccc3)n2)cc1
- ED50 (Mus musculus [1]): 61.7 mg/kg
- Activity (Mus musculus [2]): Active
- ED50 (Mus musculus [3]): 161 mg/kg
- MED (Mus musculus [4]): 100 mg/kg
- Activity (Mus musculus [5]): inactive
- Activity (Mus musculus [6]): inactive
- Activity (Mus musculus [7]): inactive
- Activity (Mus musculus [8]): Non-toxic
- Activity (Mus musculus [9]): Active
- Activity (Rattus norvegicus [10]): Non-toxic
- minimal effective dose (Mus musculus [11]): > 300 mg/kg
- Activity (Mus musculus [12]): inactive
- Activity (Rattus norvegicus [13]): inactive
- Activity (Rattus norvegicus [14]): inactive
- TD50 (Mus musculus [17]): 126.8 mg/kg
- Activity (Mus musculus [19]): Non-toxic
- Activity (Mus musculus [42]): Non-toxic
- Activity (Mus musculus [20]): Active
- Activity (Mus musculus [23]): inactive
- Activity (Rattus norvegicus [26]): inactive
- Activity (Mus musculus [27]): inactive
- Activity (Rattus norvegicus [28]): inactive
- minimal effective dose (Mus musculus [30]): > 30 mg/kg
- Activity (Rattus norvegicus [31]): inactive
- Activity (Mus musculus [32]): Non-toxic
- Activity (Mus musculus [33]): Non-toxic
- Activity (Mus musculus [35]): inactive
- MED (Mus musculus [36]): 100 mg/kg
- Activity (Mus musculus [37]): Active
- Activity (Mus musculus [43]): Toxic
- minimal effective dose (Mus musculus [39]): 100 mg/kg
- Activity (Mus musculus [44]): Non-toxic
- minimal effective dose (Mus musculus [40]): > 300 mg/kg
- Activity (Mus musculus [41]): inactive

Reference: ChEMBL document CHEMBL1275354, “Anticonvulsant activity of 2,4(1H)-diarylimidazoles in mice and rats acute seizure models” (Bioorg Med Chem, 2010)
